# Several values for one entry are separate records, joined by “and”; a condition that tells them apart may be missing. Equal values may be shown once. Inconclusive results and toxic doses are left out.
# Test system: P388 leukemia ip, CD2F1 mice, survival T/C
# Assay: NCI In Vivo Anticancer Drug Screen. Data for tumor model P388 Leukemia (intraperitoneal) in CD2F1 (CDF1) mice
# Conditions: endpoint: median survival time, higher = longer survival
# Outline: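 Mice carrying the transplanted tumor received test compound or vehicle. Survival was recorded in each group, and the value is the treated-group measurement divided by that of the vehicle-treated control group.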
# [1] = dose: 12.5 mg/kg/injection, schedule: Q01DX009 (ip), vehicle: Klucel (hydroxypropylcellulose) (HPC)
# [2] = dose: 25.0 mg/kg/injection, schedule: Q01DX009 (ip), vehicle: Klucel (hydroxypropylcellulose) (HPC)
# [3] = dose: 50.0 mg/kg/injection, schedule: Q01DX009 (ip), vehicle: Klucel (hydroxypropylcellulose) (HPC)
# [4] = dose: 50.0 mg/kg/injection, schedule: Q01DX009 (ip), vehicle: saline with Tween-80
# [5] = dose: 100.0 mg/kg/injection, schedule: Q01DX009 (ip), vehicle: saline with Tween-80
# [6] = dose: 50.0 mg/kg/injection, schedule: Q01DX005 (ip), vehicle: saline with Tween-80
# [7] = dose: 60.0 mg/kg/injection, schedule: Q01DX005 (ip), vehicle: Klucel (hydroxypropylcellulose) (HPC)
# [8] = dose: 60.0 mg/kg/injection, schedule: Q01DX005 (ip), vehicle: saline with Tween-80
# [9] = dose: 120.0 mg/kg/injection, schedule: Q01DX005 (ip), vehicle: saline with Tween-80
# [10] = dose: 240.0 mg/kg/injection, schedule: Q01DX005 (ip), vehicle: saline with Tween-80
# [11] = dose: 50.0 mg/kg/injection, schedule: Q01DX009 (ip), vehicle: saline
# [12] = dose: 100.0 mg/kg/injection, schedule: Q01DX009 (ip), vehicle: saline
# [13] = dose: 200.0 mg/kg/injection, schedule: Q01DX009 (ip), vehicle: saline
# [14] = dose: 12.5 mg/kg/injection, schedule: Q01DX009 (ip), vehicle: saline
# [15] = dose: 25.0 mg/kg/injection, schedule: Q01DX009 (ip), vehicle: saline
smiles,measurement,setting,value
C=C(C)/C(=C/C(=O)OCC)Sc1ccccc1,T/C,"dose: 100.0 mg/kg/injection, schedule: Q04DX003 (ip), vehicle: Klucel (hydroxypropylcellulose) (HPC)",106 % of control
same,T/C,"dose: 200.0 mg/kg/injection, schedule: Q04DX003 (ip), vehicle: Klucel (hydroxypropylcellulose) (HPC)",106 % of control
same,T/C,"dose: 400.0 mg/kg/injection, schedule: Q04DX003 (ip), vehicle: Klucel (hydroxypropylcellulose) (HPC)",102 % of control
Cc1nc2sccn2c1C=O,T/C,[1],109 % of control
same,T/C,[2],114 % of control
same,T/C,[3],114 % of control
same,T/C,"dose: 100.0 mg/kg/injection, schedule: Q01DX001 (ip), vehicle: Klucel (hydroxypropylcellulose) (HPC)",97 % of control
O=C(N1CCN(c2ccccc2)C1=O)N1CCN(c2ccccc2)C1=O,T/C,[4],98 % of control
same,T/C,[5],95 % of control
same,T/C,"dose: 200.0 mg/kg/injection, schedule: Q01DX009 (ip), vehicle: saline with Tween-80",91 % of control
CCCCOC(OCCCC)C(C)N (stereo not drawn),T/C,"dose: 12.5 mg/kg/injection, schedule: Q01DX005 (ip), vehicle: saline with Tween-80",108 % of control
same,T/C,"dose: 25.0 mg/kg/injection, schedule: Q01DX005 (ip), vehicle: saline with Tween-80",106 % of control
same,T/C,[6],103 % of control and 107 % of control
CC(=O)NC(CSC1(c2ccccc2)c2ccccc2-c2ccccc21)C(=O)O (stereo not drawn),T/C,[7],93 % of control
same,T/C,"dose: 120.0 mg/kg/injection, schedule: Q01DX005 (ip), vehicle: Klucel (hydroxypropylcellulose) (HPC)",89 % of control
CCOCCOc1nc(C)cc(C)c1C#N,T/C,[6],102 % of control
same,T/C,"dose: 100.0 mg/kg/injection, schedule: Q01DX005 (ip), vehicle: saline with Tween-80",105 % of control
same,T/C,"dose: 200.0 mg/kg/injection, schedule: Q01DX005 (ip), vehicle: saline with Tween-80",96 % of control
N=c1nc(N)nc2c3cc(Br)ccc3nnn12,T/C,[8],113 % of control
same,T/C,[9],117 % of control
same,T/C,[10],108 % of control
CC(=O)NC(Cc1c[nH]c2ccccc12)C(=O)Oc1ccc([N+](=O)[O-])cc1 (stereo not drawn),T/C,[11],95 % of control
same,T/C,[12],98 % of control
same,T/C,[13],92 % of control
c1ccc(CN2CCC(N3CNc4ccccc43)CC2)cc1,T/C,"dose: 25.0 mg/kg/injection, schedule: Q04DX003 (ip), vehicle: saline with Tween-80",109 % of control
same,T/C,"dose: 50.0 mg/kg/injection, schedule: Q04DX003 (ip), vehicle: saline with Tween-80",114 % of control
same,T/C,"dose: 100.0 mg/kg/injection, schedule: Q04DX003 (ip), vehicle: saline with Tween-80",88 % of control
C=C1C(=O)OC2/C=C(\C)C(O)C/C=C(/C)C(OC(=O)/C(C)=C\C)C(O)C12 (stereo not drawn),T/C,"dose: 6125.0 micrograms/kg/injection, schedule: Q01DX005 (ip), vehicle: Klucel (hydroxypropylcellulose) (HPC)",110 % of control
same,T/C,"dose: 12250.0 micrograms/kg/injection, schedule: Q01DX005 (ip), vehicle: Klucel (hydroxypropylcellulose) (HPC)",115 % of control
same,T/C,"dose: 24500.0 micrograms/kg/injection, schedule: Q01DX005 (ip), vehicle: Klucel (hydroxypropylcellulose) (HPC)",109 % of control
same,T/C,"dose: 49000.0 micrograms/kg/injection, schedule: Q01DX005 (ip), vehicle: Klucel (hydroxypropylcellulose) (HPC)",114 % of control
CSC(=N\N=C\c1ccc2c(c1)OCO2)/N=C/N(C)C,T/C,[8],98 % of control
same,T/C,[9],97 % of control
same,T/C,[10],94 % of control
O=C(c1cccc(C(=O)N2CCCC2)n1)N1CCCC1,T/C,"dose: 60.0 mg/kg/injection, schedule: Q01DX005 (ip), vehicle: saline",102 % of control
same,T/C,"dose: 120.0 mg/kg/injection, schedule: Q01DX005 (ip), vehicle: saline",102 % of control
same,T/C,"dose: 240.0 mg/kg/injection, schedule: Q01DX005 (ip), vehicle: saline",109 % of control
CCC1(O)CC2CN(CCc3c([nH]c4ccccc34)C(C(=O)OC)(c3cc4c(cc3OC)N(C=O)C3C(O)(C(=O)OC)CC5(CC)C=CCN6CCC43C65)C2)C1 (stereo not drawn),T/C,"dose: 1.0 mg/kg/injection, schedule: Q01DX001 (ip), vehicle: saline",155 % of control and 160 % of control
same,T/C,"dose: 2.0 mg/kg/injection, schedule: Q01DX001 (ip), vehicle: saline",158 % of control and 160 % of control
same,T/C,"dose: 4.0 mg/kg/injection, schedule: Q01DX001 (ip), vehicle: saline",180 % of control and 185 % of control
same,T/C,"dose: 8.0 mg/kg/injection, schedule: Q01DX001 (ip), vehicle: saline",205 % of control and 220 % of control
same,T/C,"dose: 16.0 mg/kg/injection, schedule: Q01DX001 (ip), vehicle: saline",255 % of control
CN(C)C1C[C@@H](O[Si](C)(C)C(C)(C)C)C=C1S(=O)(=O)c1ccccc1 (stereo partly drawn),T/C,[7],87 % of control
NNC(=O)c1ccccc1O,T/C,[4],100 % of control
same,T/C,[5],100 % of control
C=C1C(=O)N2c3ccccc3C(C)(C)C2(S)C(=O)N1C (stereo not drawn),T/C,[11],102 % of control
same,T/C,[12],100 % of control
same,T/C,[13],100 % of control
O=C(CBr)C1(Br)CCN(Cc2ccccc2)CC1,T/C,"dose: 3.13 mg/kg/injection, schedule: Q01DX009 (ip), vehicle: Klucel (hydroxypropylcellulose) (HPC)",109 % of control
same,T/C,"dose: 6.25 mg/kg/injection, schedule: Q01DX009 (ip), vehicle: Klucel (hydroxypropylcellulose) (HPC)",115 % of control
same,T/C,[1],109 % of control
O=[N+]([O-])c1cc[n+]([O-])c(Cl)c1,T/C,[2],91 % of control
same,T/C,[3],96 % of control
same,T/C,"dose: 100.0 mg/kg/injection, schedule: Q01DX009 (ip), vehicle: Klucel (hydroxypropylcellulose) (HPC)",94 % of control
same,T/C,"dose: 200.0 mg/kg/injection, schedule: Q01DX009 (ip), vehicle: Klucel (hydroxypropylcellulose) (HPC)",101 % of control
CN(C)C1CS(=O)(=O)OC2=C1CCSc1ccccc12 (stereo not drawn),T/C,[8],102 % of control
same,T/C,[9],99 % of control
same,T/C,[10],100 % of control
COc1ccc(C(=O)C(CN(C)C)CN(C)C)cc1OC,T/C,"dose: 6.25 mg/kg/injection, schedule: Q01DX005 (ip), vehicle: saline",113 % of control
same,T/C,"dose: 12.5 mg/kg/injection, schedule: Q01DX005 (ip), vehicle: saline",117 % of control and 124 % of control
same,T/C,"dose: 25.0 mg/kg/injection, schedule: Q01DX005 (ip), vehicle: saline",117 % of control and 121 % of control
same,T/C,"dose: 50.0 mg/kg/injection, schedule: Q01DX005 (ip), vehicle: saline",112 % of control
CN(C)/C(N)=N\c1ncccn1,T/C,[14],94 % of control
same,T/C,[15],91 % of control
same,T/C,[11],91 % of control
same,T/C,[12],93 % of control
same,T/C,[13],90 % of control
Cc1cc(C)n(C2=NS(=O)(=O)c3ccccc3N2c2ccccc2)n1,T/C,"dose: 100.0 mg/kg/injection, schedule: Q01DX001 (ip), vehicle: saline with Tween-80",102 % of control
same,T/C,"dose: 200.0 mg/kg/injection, schedule: Q01DX001 (ip), vehicle: saline with Tween-80",98 % of control
same,T/C,"dose: 400.0 mg/kg/injection, schedule: Q01DX001 (ip), vehicle: saline with Tween-80",97 % of control
CCN(CC)CCCOC(=O)c1ccc(N)cc1,T/C,[14],100 % of control
same,T/C,"dose: 12.5 mg/kg/injection, schedule: Q04DX003 (ip), vehicle: saline",91 % of control
same,T/C,[15],109 % of control
same,T/C,"dose: 25.0 mg/kg/injection, schedule: Q04DX003 (ip), vehicle: saline",91 % of control
same,T/C,[11],104 % of control
same,T/C,"dose: 50.0 mg/kg/injection, schedule: Q04DX003 (ip), vehicle: saline",87 % of control
[O-][n+]1ccc(Br)c(/C=C/c2ccccc2)c1,T/C,"dose: 30.0 mg/kg/injection, schedule: Q01DX005 (ip), vehicle: saline with Tween-80",101 % of control
same,T/C,[8],101 % of control
same,T/C,[9],102 % of control
same,T/C,[10],101 % of control
CCC12C=CCN3CCC4(c5cc(C6(C(=O)OC)CCCCCc7c6[nH]c6ccccc76)c(OC)cc5N(C)C4C(O)(C(=O)OC)C1OC(C)=O)C32 (stereo not drawn),T/C,"dose: 12.5 mg/kg/injection, schedule: Q01DX001 (ip), vehicle: distilled water + Tween-80",106 % of control
same,T/C,"dose: 25.0 mg/kg/injection, schedule: Q01DX001 (ip), vehicle: distilled water + Tween-80",109 % of control
same,T/C,"dose: 50.0 mg/kg/injection, schedule: Q01DX001 (ip), vehicle: distilled water + Tween-80",106 % of control
same,T/C,"dose: 100.0 mg/kg/injection, schedule: Q01DX001 (ip), vehicle: distilled water + Tween-80",95 % of control
same,T/C,"dose: 200.0 mg/kg/injection, schedule: Q01DX001 (ip), vehicle: distilled water + Tween-80",95 % of control
Nc1cc(N)c(N=Nc2cccc3c(S(=O)(=O)O)cccc23)cc1N=Nc1cc([N+](=O)[O-])ccc1O,T/C,[11],109 % of control
same,T/C,[12],109 % of control
same,T/C,[13],96 % of control
COc1nc2[nH]ccc2c(=O)n1C,T/C,[8],101 % of control
same,T/C,[9],92 % of control
same,T/C,[10],89 % of control
N#CC(C(=O)C(=O)Nc1ccc(Cl)cc1Cl)c1c(Cl)cccc1Cl (stereo not drawn),T/C,[8],100 % of control
same,T/C,[9],101 % of control

# — PubChem BioAssay AID330 (DTP/NCI, 2004)
